≈ marks a conversion by molar mass, not a printed value.
How the values were obtained:
Format in all cases: functional
Pseudomonas aeruginosa [1] = test: Antimicrobial activity against Pseudomonas aeruginosa MTCC 741 assessed as diameter of growth zone inhibition by agar streak dilution method; further: test concentration or dose not given here
[2] = tested on: Mycobacterium tuberculosis; test: Antitubercular activity against Mycobacterium tuberculosis H37Rv assessed as growth inhibition by BACTEC MGIT method
Candida albicans [3] = test: Antimicrobial activity against Candida albicans MTCC 183 assessed as diameter of growth zone inhibition by agar streak dilution method; further: test concentration or dose not given here
Aspergillus niger [4] = test: Antimicrobial activity against Aspergillus niger MTCC 282 assessed as growth inhibition by agar streak dilution method
Staphylococcus aureus [5] = test: Antimicrobial activity against Staphylococcus aureus MTCC 96 assessed as growth inhibition by agar streak dilution method
Staphylococcus aureus [6] = test: Antimicrobial activity against Staphylococcus aureus MTCC 96 assessed as diameter of growth zone inhibition by agar streak dilution method; further: test concentration or dose not given here
Bacillus subtilis [7] = test: Antimicrobial activity against Bacillus subtilis MTCC 430 assessed as growth inhibition by agar streak dilution method
Bacillus subtilis [8] = test: Antimicrobial activity against Bacillus subtilis MTCC 430 assessed as diameter of growth zone inhibition by agar streak dilution method; further: test concentration or dose not given here
Escherichia coli [9] = test: Antimicrobial activity against Escherichia coli MTCC 739 assessed as growth inhibition by agar streak dilution method
Aspergillus niger [10] = test: Antimicrobial activity against Aspergillus niger MTCC 282 assessed as diameter of growth zone inhibition by agar streak dilution method; further: test concentration or dose not given here
Candida albicans [11] = test: Antimicrobial activity against Candida albicans MTCC 183 assessed as growth inhibition by agar streak dilution method
Pseudomonas aeruginosa [12] = test: Antimicrobial activity against Pseudomonas aeruginosa MTCC 741 assessed as growth inhibition by agar streak dilution method
Escherichia coli [13] = test: Antimicrobial activity against Escherichia coli MTCC 739 assessed as diameter of growth zone inhibition by agar streak dilution method; further: test concentration or dose not given here

Structure (SMILES) | diameter of the inhibition zone (DIZ) (Pseudomonas aeruginosa [1]) [mm] | MIC [2] [µg/mL] | diameter of the inhibition zone (DIZ) (Candida albicans [3]) [mm] | MIC (Aspergillus niger [4]) [µg/mL] | MIC (Staphylococcus aureus [5]) [µg/mL] | diameter of the inhibition zone (DIZ) (Staphylococcus aureus [6]) [mm] | MIC (Bacillus subtilis [7]) [µg/mL] | diameter of the inhibition zone (DIZ) (Bacillus subtilis [8]) [mm] | MIC (Escherichia coli [9]) [µg/mL] | diameter of the inhibition zone (DIZ) (Aspergillus niger [10]) [mm] | MIC (Candida albicans [11]) [µg/mL] | MIC (Pseudomonas aeruginosa [12]) [µg/mL] | diameter of the inhibition zone (DIZ) (Escherichia coli [13]) [mm]
O=C1CSC(c2cc3ccccc3nc2S)N1c1cccc([N+](=O)[O-])c1 (configuration not stated) | 23 | 125 (≈ 326 µM) | 20 | 25 (≈ 65.2 µM) | 50 (≈ 130 µM) | 22 | 50 (≈ 130 µM) | 22 | 6.25 (≈ 16.3 µM) | 23 | 100 (≈ 261 µM) | 25 (≈ 65.2 µM) | 24
O=C1CSC(c2cc3ccccc3nc2S)N1c1ccccc1 (configuration not stated) | 17 | 1000 (≈ 2950 µM) | 15 | 100 (≈ 295 µM) | 100 (≈ 295 µM) | 19 | 100 (≈ 295 µM) | 17 | 100 (≈ 295 µM) | 16 | 100 (≈ 295 µM) | 100 (≈ 295 µM) | 16
Cc1ccccc1N1C(=O)CSC1c1cc2ccccc2nc1S (configuration not stated) | 14 | 500 (≈ 1420 µM) | 17 | 100 (≈ 284 µM) | 100 (≈ 284 µM) | 20 | 100 (≈ 284 µM) | 15 | 100 (≈ 284 µM) | 16 | 100 (≈ 284 µM) | 1000 (≈ 2840 µM) | 15
Cc1ccc(N2C(=O)C(Cl)C2c2cc3ccccc3nc2S)cc1 (configuration not stated) | 18 | 250 (≈ 704 µM) | 15 | 100 (≈ 282 µM) | 100 (≈ 282 µM) | 18 | 100 (≈ 282 µM) | 19 | 100 (≈ 282 µM) | 17 | 100 (≈ 282 µM) | 100 (≈ 282 µM) | 18
Cc1ccccc1N1C(=O)C(Cl)C1c1cc2ccccc2nc1S (configuration not stated) | 19 | 500 (≈ 1410 µM) | 20 | 100 (≈ 282 µM) | 62.5 (≈ 176 µM) | 21 | 100 (≈ 282 µM) | <10 | 100 (≈ 282 µM) | 18 | 100 (≈ 282 µM) | 100 (≈ 282 µM) | <10
O=C1C(Cl)C(c2cc3ccccc3nc2S)N1c1cccc([N+](=O)[O-])c1 (configuration not stated) | 23 | 250 (≈ 648 µM) | 20 | 12.5 (≈ 32.4 µM) | 50 (≈ 130 µM) | 22 | 50 (≈ 130 µM) | 22 | 50 (≈ 130 µM) | 24 | 100 (≈ 259 µM) | 50 (≈ 130 µM) | 22
O=C1C(Cl)C(c2cc3ccccc3nc2S)N1c1ccccc1Cl (configuration not stated) | 22 | 125 (≈ 333 µM) | 19 | 62.5 (≈ 167 µM) | 6.25 (≈ 16.7 µM) | 24 | 12.5 (≈ 33.3 µM) | 25 | 50 (≈ 133 µM) | 20 | 100 (≈ 266 µM) | 50 (≈ 133 µM) | 23
O=C1C(Cl)C(c2cc3ccccc3nc2S)N1c1ccccc1[N+](=O)[O-] (configuration not stated) | 24 | 500 (≈ 1300 µM) | 21 | 25 (≈ 64.8 µM) | 62.5 (≈ 162 µM) | 22 | 62.5 (≈ 162 µM) | 22 | 62.5 (≈ 162 µM) | 23 | 62.5 (≈ 162 µM) | 25 (≈ 64.8 µM) | 21
O=C1C(Cl)C(c2cc3ccccc3nc2S)N1c1cccc(Cl)c1 (configuration not stated) | 23 | 125 (≈ 333 µM) | 21 | 50 (≈ 133 µM) | 12.5 (≈ 33.3 µM) | 24 | 12.5 (≈ 33.3 µM) | 25 | 62.5 (≈ 167 µM) | 25 | 62.5 (≈ 167 µM) | 62.5 (≈ 167 µM) | 22
O=C1CSC(c2cc3ccccc3nc2S)N1c1ccccc1Cl (configuration not stated) | 23 | 125 (≈ 335 µM) | 22 | 62.5 (≈ 168 µM) | 6.25 (≈ 16.8 µM) | 23 | 12.5 (≈ 33.5 µM) | 25 | 12.5 (≈ 33.5 µM) | 21 | 100 (≈ 268 µM) | 62.5 (≈ 168 µM) | 23
Cc1cccc(N2C(=O)CSC2c2cc3ccccc3nc2S)c1 (configuration not stated) | 18 | 500 (≈ 1420 µM) | 19 | 100 (≈ 284 µM) | 62.5 (≈ 177 µM) | 21 | 100 (≈ 284 µM) | 19 | 100 (≈ 284 µM) | 20 | 100 (≈ 284 µM) | 100 (≈ 284 µM) | 19
O=C1C(Cl)C(c2cc3ccccc3nc2S)N1c1ccccc1 (configuration not stated) | <10 | 1000 (≈ 2930 µM) | <10 | 100 (≈ 293 µM) | 100 (≈ 293 µM) | 17 | 100 (≈ 293 µM) | 17 | 100 (≈ 293 µM) | <10 | 100 (≈ 293 µM) | 100 (≈ 293 µM) | <10
Cc1cccc(N2C(=O)C(Cl)C2c2cc3ccccc3nc2S)c1 (configuration not stated) | <10 | 500 (≈ 1410 µM) | 18 | 100 (≈ 282 µM) | 100 (≈ 282 µM) | 19 | 100 (≈ 282 µM) | 18 | 100 (≈ 282 µM) | 19 | 100 (≈ 282 µM) | 100 (≈ 282 µM) | 17
Cc1cnc(N2C(=O)CSC2c2cc3ccccc3nc2S)s1 (configuration not stated) | 23 | 62.5 (≈ 174 µM) | 24 | 62.5 (≈ 174 µM) | 12.5 (≈ 34.8 µM) | 24 | 25 (≈ 69.5 µM) | 23 | 12.5 (≈ 34.8 µM) | 23 | 62.5 (≈ 174 µM) | 62.5 (≈ 174 µM) | 24
